{
  "source": "ChEMBL document CHEMBL3102758",
  "about": "“Structure-activity relationship study of BACE1 inhibitors possessing a chelidonic or 2,6-pyridinedicarboxylic scaffold at the P(2) position” (Bioorg Med Chem Lett, 2014)",
  "key": {"[1]": {"biological_target": "T1, Beta-secretase 1 (Homo sapiens, UniProt P56817)", "T1 sequence (P56817 whole entry)": "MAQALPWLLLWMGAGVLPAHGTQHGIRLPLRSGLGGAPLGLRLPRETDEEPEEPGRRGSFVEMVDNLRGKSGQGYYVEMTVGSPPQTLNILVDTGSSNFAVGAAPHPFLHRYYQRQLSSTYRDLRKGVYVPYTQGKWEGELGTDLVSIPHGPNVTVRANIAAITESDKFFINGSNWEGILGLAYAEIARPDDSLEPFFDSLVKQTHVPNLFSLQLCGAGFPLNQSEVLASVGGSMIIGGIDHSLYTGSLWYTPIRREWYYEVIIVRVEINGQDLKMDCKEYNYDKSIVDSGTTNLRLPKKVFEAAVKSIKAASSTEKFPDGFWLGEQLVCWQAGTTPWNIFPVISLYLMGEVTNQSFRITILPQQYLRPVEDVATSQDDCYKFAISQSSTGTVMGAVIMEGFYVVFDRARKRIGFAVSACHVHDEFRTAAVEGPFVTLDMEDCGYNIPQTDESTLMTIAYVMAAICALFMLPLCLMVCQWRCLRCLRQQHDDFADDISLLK", "test": "Inhibition of recombinant human BACE1 using (7-methoxycoumarin-4-yl)acetyl-SEVNL*DAEFRK(2,4-dinitrophenyl)-RR-NH2) as substrate at 2 uM by FRET assay"}, "[2]": {"biological_target": "T1, Beta-secretase 1", "test": "Inhibition of recombinant human BACE1 using (7-methoxycoumarin-4-yl)acetyl-SEVNL*DAEFRK(2,4-dinitrophenyl)-RR-NH2) as substrate at 0.2 uM by FRET assay"}, "[3]": {"biological_target": "T1, Beta-secretase 1", "test": "Inhibition of recombinant human BACE1 using (7-methoxycoumarin-4-yl)acetyl-SEVNL*DAEFRK(2,4-dinitrophenyl)-RR-NH2) as substrate by FRET assay"}},
  "data": [
    {"smiles": "C[C@@H](NC(=O)c1cc(=O)cc(C(=O)N[C@@H](Cc2ccccc2)[C@H](O)C(=O)Nc2cccc(-c3nn[nH]n3)c2)o1)c1ccc(Cl)cc1", "values": [
      {"measurement": "inhibition", "setting": "[1]", "result": 61, "unit": "%"}
    ]},
    {"smiles": "Nc1cc(C(=O)N[C@@H](Cc2ccccc2)[C@H](O)C(=O)Nc2cccc(-c3nn[nH]n3)c2)nc(C(=O)N2COC[C@@H]2c2ccccc2)c1", "values": [
      {"measurement": "inhibition", "setting": "[2]", "result": 53, "unit": "%"},
      {"measurement": "inhibition", "setting": "[1]", "result": 78, "unit": "%"}
    ]},
    {"smiles": "CN(NC(=O)c1cc(=O)cc(C(=O)N[C@@H](Cc2ccccc2)[C@H](O)C(=O)Nc2cccc(-c3nn[nH]n3)c2)o1)c1ccccc1", "values": [
      {"measurement": "inhibition", "setting": "[1]", "result": 21, "unit": "%"}
    ]},
    {"smiles": "CCCN(CCC)C(=O)c1cc(=O)cc(C(=O)N[C@@H](Cc2ccccc2)[C@@H](O)C(=O)Nc2cccc(-c3nnn[nH]3)c2)o1", "values": [
      {"measurement": "inhibition", "setting": "[1]", "result": 60, "unit": "%"}
    ]},
    {"smiles": "COc1ccc([C@@H](C)NC(=O)c2cc(=O)cc(C(=O)N[C@@H](Cc3ccccc3)[C@H](O)C(=O)Nc3cccc(-c4nn[nH]n4)c3)o2)cc1", "values": [
      {"measurement": "inhibition", "setting": "[1]", "result": 70, "unit": "%"}
    ]},
    {"smiles": "O=C(N[C@@H](Cc1ccccc1)[C@H](O)C(=O)Nc1cccc(-c2nn[nH]n2)c1)c1cc(=O)cc(C(=O)N(Cc2ccccc2)Cc2ccccc2)o1", "values": [
      {"measurement": "inhibition", "setting": "[1]", "result": 29, "unit": "%"}
    ]},
    {"smiles": "[N-]=[N+]=Nc1cc(C(=O)N[C@@H](Cc2ccccc2)[C@H](O)C(=O)Nc2cccc(-c3nn[nH]n3)c2)nc(C(=O)N2COC[C@@H]2c2ccccc2)c1", "values": [
      {"measurement": "inhibition", "setting": "[2]", "result": 68, "unit": "%"},
      {"measurement": "inhibition", "setting": "[1]", "result": 95, "unit": "%"},
      {"measurement": "IC50", "setting": "[3]", "result": 79, "unit": "nM"}
    ]},
    {"smiles": "COc1cc(C(=O)N[C@@H](Cc2ccccc2)[C@H](O)C(=O)Nc2cccc(-c3nn[nH]n3)c2)nc(C(=O)NC(C)(C)c2ccccc2)c1", "values": [
      {"measurement": "inhibition", "setting": "[1]", "result": 74, "unit": "%"}
    ]},
    {"smiles": "CSc1cc(C(=O)N[C@@H](Cc2ccccc2)[C@H](O)C(=O)Nc2cccc(-c3nn[nH]n3)c2)nc(C(=O)NC(C)(C)c2ccccc2)c1", "values": [
      {"measurement": "inhibition", "setting": "[1]", "result": 85, "unit": "%"}
    ]},
    {"smiles": "CSc1cc(C(=O)N[C@@H](Cc2ccccc2)[C@H](O)C(=O)Nc2cccc(-c3nn[nH]n3)c2)nc(C(=O)N2COC[C@@H]2c2ccccc2)c1", "values": [
      {"measurement": "inhibition", "setting": "[2]", "result": 66, "unit": "%"},
      {"measurement": "inhibition", "setting": "[1]", "result": 95, "unit": "%"},
      {"measurement": "IC50", "setting": "[3]", "result": 89, "unit": "nM"}
    ]},
    {"smiles": "COc1cc(C(=O)N[C@@H](Cc2ccccc2)[C@H](O)C(=O)Nc2cccc(-c3nn[nH]n3)c2)nc(C(=O)N[C@H](C)c2ccccc2)c1", "values": [
      {"measurement": "inhibition", "setting": "[1]", "result": 73, "unit": "%"}
    ]},
    {"smiles": "O=C(NC(c1ccccc1)c1ccccc1)c1cc(=O)cc(C(=O)N[C@@H](Cc2ccccc2)[C@H](O)C(=O)Nc2cccc(-c3nn[nH]n3)c2)o1", "values": [
      {"measurement": "inhibition", "setting": "[1]", "result": 13, "unit": "%"}
    ]},
    {"smiles": "CCCN(CCC)C(=O)c1cc(=O)cc(C(=O)N[C@@H](Cc2ccccc2)[C@@H](O)C(=O)Nc2cccc(-c3noc(=O)[nH]3)c2)o1", "values": [
      {"measurement": "inhibition", "setting": "[1]", "result": 23, "unit": "%"}
    ]},
    {"smiles": "CC[C@@H](NC(=O)c1cc(=O)cc(C(=O)N[C@@H](Cc2ccccc2)[C@H](O)C(=O)Nc2cccc(-c3nn[nH]n3)c2)o1)c1ccccc1", "values": [
      {"measurement": "inhibition", "setting": "[1]", "result": 32, "unit": "%"}
    ]},
    {"smiles": "C[C@@H](NC(=O)c1cc(=O)cc(C(=O)N[C@@H](Cc2ccccc2)[C@H](O)C(=O)Nc2cccc(-c3nn[nH]n3)c2)o1)c1cccc(F)c1", "values": [
      {"measurement": "inhibition", "setting": "[1]", "result": 62, "unit": "%"}
    ]},
    {"smiles": "CCCN(CCC)C(=O)c1cc(=O)cc(C(=O)N[C@@H](Cc2ccccc2)[C@@H](O)C(=O)Nc2cccc(C(=O)O)c2)o1", "values": [
      {"measurement": "inhibition", "setting": "[1]", "result": 10, "unit": "%"}
    ]},
    {"smiles": "CN(c1cc(C(=O)N[C@@H](Cc2ccccc2)[C@H](O)C(=O)Nc2cccc(-c3nn[nH]n3)c2)nc(C(=O)N2COC[C@@H]2c2ccccc2)c1)S(C)(=O)=O", "values": [
      {"measurement": "inhibition", "setting": "[1]", "result": 75, "unit": "%"}
    ]},
    {"smiles": "O=C(N[C@@H](CO)c1ccccc1)c1cc(=O)cc(C(=O)N[C@@H](Cc2ccccc2)[C@H](O)C(=O)Nc2cccc(-c3nn[nH]n3)c2)o1", "values": [
      {"measurement": "inhibition", "setting": "[1]", "result": 11, "unit": "%"}
    ]},
    {"smiles": "CCOc1cc(C(=O)N[C@@H](Cc2ccccc2)[C@H](O)C(=O)Nc2cccc(-c3nn[nH]n3)c2)nc(C(=O)NC(C)(C)c2ccccc2)c1", "values": [
      {"measurement": "inhibition", "setting": "[1]", "result": 42, "unit": "%"}
    ]},
    {"smiles": "CCOc1cc(C(=O)N[C@@H](Cc2ccccc2)[C@H](O)C(=O)Nc2cccc(-c3nn[nH]n3)c2)nc(C(=O)N2COC[C@@H]2c2ccccc2)c1", "values": [
      {"measurement": "inhibition", "setting": "[1]", "result": 79, "unit": "%"}
    ]},
    {"smiles": "COc1cccc([C@@H](C)NC(=O)c2cc(=O)cc(C(=O)N[C@@H](Cc3ccccc3)[C@H](O)C(=O)Nc3cccc(-c4nn[nH]n4)c3)o2)c1", "values": [
      {"measurement": "inhibition", "setting": "[1]", "result": 48, "unit": "%"}
    ]},
    {"smiles": "Cc1cc(C(=O)N[C@@H](Cc2ccccc2)[C@H](O)C(=O)Nc2cccc(-c3nn[nH]n3)c2)nc(C(=O)N2COC[C@@H]2c2ccccc2)c1", "values": [
      {"measurement": "inhibition", "setting": "[2]", "result": 68, "unit": "%"},
      {"measurement": "inhibition", "setting": "[1]", "result": 95, "unit": "%"}
    ]},
    {"smiles": "CC(C)Sc1cc(C(=O)N[C@@H](Cc2ccccc2)[C@H](O)C(=O)Nc2cccc(-c3nn[nH]n3)c2)nc(C(=O)N2COC[C@@H]2c2ccccc2)c1", "values": [
      {"measurement": "inhibition", "setting": "[1]", "result": 72, "unit": "%"}
    ]},
    {"smiles": "C[C@@H](NC(=O)c1cc(=O)cc(C(=O)N[C@@H](Cc2ccccc2)[C@H](O)C(=O)Nc2cccc(-c3nn[nH]n3)c2)o1)c1ccc([N+](=O)[O-])cc1", "values": [
      {"measurement": "inhibition", "setting": "[1]", "result": 51, "unit": "%"}
    ]},
    {"smiles": "C[C@@H](NC(=O)c1cc(=O)cc(C(=O)N[C@@H](Cc2ccccc2)[C@H](O)C(=O)Nc2cccc(-c3nn[nH]n3)c2)o1)c1ccc(F)cc1", "values": [
      {"measurement": "inhibition", "setting": "[1]", "result": 76, "unit": "%"}
    ]},
    {"smiles": "CN(Cc1ccccc1)C(=O)c1cc(=O)cc(C(=O)N[C@@H](Cc2ccccc2)[C@H](O)C(=O)Nc2cccc(-c3nn[nH]n3)c2)o1", "values": [
      {"measurement": "inhibition", "setting": "[1]", "result": 67, "unit": "%"}
    ]},
    {"smiles": "CCCOc1cc(C(=O)N[C@@H](Cc2ccccc2)[C@H](O)C(=O)Nc2cccc(-c3nn[nH]n3)c2)nc(C(=O)N2COC[C@@H]2c2ccccc2)c1", "values": [
      {"measurement": "inhibition", "setting": "[1]", "result": 64, "unit": "%"}
    ]},
    {"smiles": "C[C@@H](NC(=O)c1cc(=O)cc(C(=O)N[C@@H](Cc2ccccc2)[C@H](O)C(=O)Nc2cccc(-c3nn[nH]n3)c2)o1)C1CCCCC1", "values": [
      {"measurement": "inhibition", "setting": "[1]", "result": 26, "unit": "%"}
    ]},
    {"smiles": "C[C@@H](NC(=O)c1cc(OS(=O)(=O)Cc2ccccc2)cc(C(=O)N[C@@H](Cc2ccccc2)[C@H](O)C(=O)Nc2cccc(-c3nn[nH]n3)c2)n1)c1ccccc1", "values": [
      {"measurement": "inhibition", "setting": "[1]", "result": 29, "unit": "%"}
    ]},
    {"smiles": "Cc1ccc([C@@H](C)NC(=O)c2cc(=O)cc(C(=O)N[C@@H](Cc3ccccc3)[C@H](O)C(=O)Nc3cccc(-c4nn[nH]n4)c3)o2)cc1", "values": [
      {"measurement": "inhibition", "setting": "[1]", "result": 54, "unit": "%"}
    ]},
    {"smiles": "CSc1cc(C(=O)N[C@@H](Cc2ccccc2)[C@H](O)C(=O)Nc2cccc(-c3nn[nH]n3)c2)nc(C(=O)N[C@H](C)c2ccccc2)c1", "values": [
      {"measurement": "inhibition", "setting": "[1]", "result": 82, "unit": "%"}
    ]},
    {"smiles": "CCOc1cc(C(=O)N[C@@H](Cc2ccccc2)[C@H](O)C(=O)Nc2cccc(-c3nn[nH]n3)c2)nc(C(=O)N[C@H](C)c2ccccc2)c1", "values": [
      {"measurement": "inhibition", "setting": "[1]", "result": 46, "unit": "%"}
    ]},
    {"smiles": "O=C(NCc1ccccc1)c1cc(=O)cc(C(=O)N[C@@H](Cc2ccccc2)[C@H](O)C(=O)Nc2cccc(-c3nn[nH]n3)c2)o1", "values": [
      {"measurement": "inhibition", "setting": "[1]", "result": 25, "unit": "%"}
    ]},
    {"smiles": "CCCN(CCC)C(=O)c1cc(=O)cc(C(=O)N[C@@H](Cc2ccccc2)[C@H](O)C(=O)Nc2cccc(-c3nnn[nH]3)c2)o1", "values": [
      {"measurement": "inhibition", "setting": "[1]", "result": 6, "unit": "%"}
    ]},
    {"smiles": "C[C@H](NC(=O)c1cc(=O)cc(C(=O)N[C@@H](Cc2ccccc2)[C@H](O)C(=O)Nc2cccc(-c3nn[nH]n3)c2)o1)c1ccccc1", "values": [
      {"measurement": "inhibition", "setting": "[1]", "result": 25, "unit": "%"}
    ]},
    {"smiles": "COc1cc(C(=O)N[C@@H](Cc2ccccc2)[C@H](O)C(=O)Nc2cccc(-c3nn[nH]n3)c2)nc(C(=O)N2COC[C@@H]2c2ccccc2)c1", "values": [
      {"measurement": "inhibition", "setting": "[2]", "result": 53, "unit": "%"},
      {"measurement": "inhibition", "setting": "[1]", "result": 91, "unit": "%"},
      {"measurement": "IC50", "setting": "[3]", "result": 151, "unit": "nM"}
    ]}
  ]
}
